Assay results from patent US11365192B2, “Pyridine compound substituted with azole” (TAISHO PHARMACEUTICAL CO., LTD., priority 2017, dated 2022).

What was measured:
human CYP4F2 = human CYP4F2 (Homo sapiens (Human), UniProt P78329); assay: Inhibition test against 20-HETE producing enzyme CYP4F2 (luciferine derivative, luminescence); format: biochemical; settings: E. coli membrane fraction expressing human CYP4F2, 2.5 μM luciferine derivative, room temperature 60 minutes
Method in brief: (§1)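 E. coli membranes (100 μg/mL protein) expressing human enzyme, room temperature 60 min, luciferin-derivative luminescence; IC50 from % inhibition. CYP4F2: 50 mM KPO4 pH 7.4, 2.5 μM substrate, 1 mM NADPH. CYP4A11: 100 mM Tris-HCl pH 7.5, 60 μM substrate, NADP+/glucose 6-phosphate/G6PDH regenerating system, 3.3 mM MgCl2.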

human CYP4A11 = human CYP4A11 (Homo sapiens (Human), UniProt Q02928); assay: Inhibition test against 20-HETE producing enzyme CYP4A11 (luciferine derivative, luminescence); format: biochemical; settings: E. coli membrane fraction expressing human CYP4A11, 60 μM luciferine derivative, room temperature 60 minutes
human CYP4A11, sequence (Q02928 5-519): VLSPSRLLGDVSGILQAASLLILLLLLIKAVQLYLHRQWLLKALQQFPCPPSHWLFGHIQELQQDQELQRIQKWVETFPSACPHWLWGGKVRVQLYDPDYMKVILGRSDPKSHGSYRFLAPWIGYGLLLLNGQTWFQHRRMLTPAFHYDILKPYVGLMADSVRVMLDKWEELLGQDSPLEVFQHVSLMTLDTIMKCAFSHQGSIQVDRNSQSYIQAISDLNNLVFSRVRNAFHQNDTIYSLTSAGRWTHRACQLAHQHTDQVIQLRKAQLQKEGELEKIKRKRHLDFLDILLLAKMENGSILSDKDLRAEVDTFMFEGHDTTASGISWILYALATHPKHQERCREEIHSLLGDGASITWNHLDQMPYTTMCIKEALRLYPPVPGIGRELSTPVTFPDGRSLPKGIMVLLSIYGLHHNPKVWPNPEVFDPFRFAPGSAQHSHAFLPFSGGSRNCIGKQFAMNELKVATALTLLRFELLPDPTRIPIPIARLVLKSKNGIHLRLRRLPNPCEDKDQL
Method in brief: as §1

human CYP4F2, sequence (P78329 5-520): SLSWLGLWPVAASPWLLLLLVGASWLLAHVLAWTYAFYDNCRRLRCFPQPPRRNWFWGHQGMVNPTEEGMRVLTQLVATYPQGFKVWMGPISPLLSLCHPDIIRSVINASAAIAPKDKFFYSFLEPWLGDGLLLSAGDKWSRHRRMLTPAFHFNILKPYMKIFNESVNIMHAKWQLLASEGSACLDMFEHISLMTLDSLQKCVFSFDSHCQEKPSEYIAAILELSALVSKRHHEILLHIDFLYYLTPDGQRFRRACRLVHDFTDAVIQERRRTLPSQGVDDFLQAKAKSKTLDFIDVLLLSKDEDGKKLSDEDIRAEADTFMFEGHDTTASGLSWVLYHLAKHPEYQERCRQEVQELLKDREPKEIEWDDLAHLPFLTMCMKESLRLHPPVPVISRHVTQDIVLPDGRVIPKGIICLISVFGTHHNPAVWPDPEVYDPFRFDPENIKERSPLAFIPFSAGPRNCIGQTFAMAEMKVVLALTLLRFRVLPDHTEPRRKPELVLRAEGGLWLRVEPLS

Structure (SMILES) | IC50 (human CYP4F2) | IC50 (human CYP4A11)
CS(=O)(=O)c1cc(COc2ccc(-c3ccn[nH]3)nc2)ccc1O [Example 20-1, 2-Methylsulfonyl-4-[[6-(1H-pyrazol-5-yl)-3-pyridinyl]oxymethyl]phenol] | 1100 nM | 28000 nM
CS(=O)(=O)c1cc(O)cc(COc2ccc(-c3ccn[nH]3)nc2)c1 [Example 20-2] | 69 nM | 210 nM
O=C(O)Cc1ccc(COc2ccc(-c3ccn[nH]3)nc2)cc1 [Example 21-1, 2-[4-[[6-(1H-Pyrazol-5-yl)-3-pyridinyl]oxymethyl]phenyl]acetic Acid] | 15000 nM | 43 nM
O=C(O)Cc1ccccc1COc1ccc(-c2ccn[nH]2)nc1 [Example 21-2] | > 50000 nM | 3800 nM
O=C(O)C1(c2cccc(COc3ccc(-c4ccn[nH]4)nc3)c2)CC1 [Example 21-3] | 21000 nM | 16 nM
CC(C)(CCNS(=O)(=O)c1cccc(COc2ccc(-c3ccn[nH]3)nc2)c1)C(=O)O [Example 21-4] | 1500 nM | 25 nM
CN(CCC(C)(C)C(=O)O)S(=O)(=O)c1cccc(COc2ccc(-c3ccn[nH]3)nc2)c1 [Example 21-5] | 430 nM | 29 nM
O=C(O)/C=C/c1cccc(COc2ccc(-c3ccn[nH]3)nc2)c1 [Example 22-1, (2E)-3-[3-[[[6-(1H-Pyrazol-5-yl)pyridin-3-yl]oxy]methyl]phenyl]-2-propenoic Acid] | 140 nM | 15 nM
O=C(O)c1cccc(COc2ccc(-c3ccn[nH]3)nc2)c1 [Example 22-2] | 1400 nM | 42 nM
O=C(O)Cc1cccc(COc2ccc(-c3ccn[nH]3)nc2)c1 [Example 22-3] | 17000 nM | 16 nM
O=C(O)CCc1cccc(COc2ccc(-c3ccn[nH]3)nc2)c1 [Example 22-4] | 1400 nM | 20 nM
O=C(O)c1cnc(-c2cccc(COc3ccc(-c4ccn[nH]4)nc3)c2)nc1 [Example 22-5, 2-[3-[[6-(1H-Pyrazol-5-yl)-3-pyridinyl]oxymethyl]phenyl]-5-pyrimidinecarboxylic Acid] | 3100 nM | 120 nM
O=C(O)c1ccnc(-c2cccc(COc3ccc(-c4ccn[nH]4)nc3)c2)n1 [Example 22-6] | 3100 nM | 110 nM
O=C(O)c1ncc(-c2cccc(COc3ccc(-c4ccn[nH]4)nc3)c2)cn1 [Example 22-7] | 1200 nM | 38 nM
O=C(O)C1CCN(S(=O)(=O)c2cccc(COc3ccc(-c4ccn[nH]4)nc3)c2)CC1 [Example 22-8] | 1500 nM | 68 nM
O=C(O)C1CCN(S(=O)(=O)c2cccc(COc3ccc(-c4ccn[nH]4)nc3)c2)C1 (centres unmarked) [Example 22-10] | 2000 nM | 24 nM
O=C(O)C1CN(S(=O)(=O)c2cccc(COc3ccc(-c4ccn[nH]4)nc3)c2)CCO1 (centres unmarked) [Example 22-12] | 2000 nM | 53 nM
CC(C)(Oc1cc(COc2ccc(-c3ccn[nH]3)nc2)ccn1)C(=O)O [Example 22-13, 2-Methyl-2-[[4-[[6-(1H-pyrazol-5-yl)-3-pyridinyl]oxymethyl]-2-pyridinyl]oxy]propanoic Acid] | 11000 nM | 380 nM
O=C(O)c1cc(COc2ccc(-c3ccn[nH]3)nc2)ccc1F [Example 22-15] | 14000 nM | 92 nM
O=C(O)c1cc(COc2ccc(-c3ccn[nH]3)nc2)ccc1Cl [Example 22-16] | 33000 nM | 780 nM
COc1cc(COc2ccc(-c3ccn[nH]3)nc2)ccc1C(=O)O [Example 22-17, 2-Methoxy-4-[[6-(1H-pyrazol-5-yl)-3-pyridinyl]oxymethyl]benzoic Acid] | 19000 nM | 62 nM
O=C(O)c1ccc(COc2ccc(-c3ccn[nH]3)nc2)cc1F [Example 22-18] | 18000 nM | 35 nM
O=C(O)Cc1cccc(OCCOc2ccc(-c3ccn[nH]3)nc2)c1 [Example 22-19, 2-[3-[2-[[6-(1H-Pyrazol-5-yl)-3-pyridinyl]oxy]ethoxy]phenyl] acetic Acid] | 1500 nM | 49 nM
O=C(O)CCCCCCOc1ccc(-c2ccn[nH]2)nc1 [Example 22-20, 7-[[6-(1H-Pyrazol-5-yl)-3-pyridinyl]oxy]heptanoic Acid] | 9600 nM | 76 nM
CNS(=O)(=O)c1cccc(COc2ccc(-c3ccn[nH]3)nc2)c1 [Example 23-1, N-Methyl-3-[[6-(1-H-pyrazol-5-yl)-3-pyridinyl]oxymethyl]benzenesulfonamide] | 220 nM | 36 nM
CNS(=O)(=O)c1cccc(CN(C)S(=O)(=O)c2cccc(COc3ccc(-c4ccn[nH]4)nc3)c2)c1 [Example 23-2, N-Methyl-3-[[methyl-[3-[[6-(1-H-pyrazol-5-yl)-3-pyridinyl]oxymethyl]phenyl]sulfonylamino]methyl]benzenesulfonamide] | 3 nM | 13 nM

Structure (SMILES) | IC50 (human CYP4F2) | IC50 (human CYP4A11)
O=S(=O)(NCCc1c[nH]c2ccccc12)c1ccc(COc2ccc(-c3ccn[nH]3)nc2)cc1 [Example 23-3] | 49 nM | 1700 nM
OCc1ccc(COc2ccc(-c3ccn[nH]3)nc2)cc1 [Example 23-4] | 51 nM | 2000 nM
OCc1cccc(COc2ccc(-c3ccn[nH]3)nc2)c1 [Example 23-5] | 130 nM | 480 nM
O=S(=O)(Nc1ccc(F)cc1)c1ccc(COc2ccc(-c3ccn[nH]3)nc2)cc1 [Example 23-6] | 6.4 nM | 270 nM
CC(C(=O)O)c1cccc(COc2ccc(-c3ccn[nH]3)nc2)c1 (centres unmarked) [Example 24-1, Sodium 2-[3-[[6-(1H-pyrazol-5-yl)-3-pyridinyl]oxymethyl]phenyl]propanoate] | 13000 nM | 16 nM
CC(C)(C(=O)O)c1cccc(COc2ccc(-c3ccn[nH]3)nc2)c1 [Example 24-2, Sodium 2-methyl-2-[3-[[6-(1H-pyrazol-5-yl)-3-pyridinyl]oxymethyl]phenyl]propanoate] | 3500 nM | 16 nM
CC(C)(C(=O)O)c1cccc(OCCOc2ccc(-c3ccn[nH]3)nc2)c1 [Example 24-3] | 3200 nM | 60 nM
Cc1cc(COc2ccc(-c3ccn[nH]3)nc2)ccc1C(=O)O [Example 25-1, 2-Methyl-4-[[6-(1H-pyrazol-5-yl)-3-pyridinyl]oxymethyl]benzoic Acid] | 16000 nM | 33 nM
CC(C)(O)c1cccc(COc2ccc(-c3ccn[nH]3)nc2)c1 [Example 27-1, 2-[3-[[6-(1-H-Pyrazol-5-yl)-3-pyridinyl]oxymethyl]phenyl]-2-propanol] | 400 nM | 44 nM
CC(O)(c1cccc(COc2ccc(-c3ccn[nH]3)nc2)c1)C(F)(F)F (centres unmarked) [Example 27-2] | 300 nM | 15 nM
OC1(c2cccc(COc3ccc(-c4ccn[nH]4)nc3)c2)CCC1 [Example 27-3] | 350 nM | 120 nM
OC1(c2cccc(COc3ccc(-c4ccn[nH]4)nc3)c2)CCCC1 [Example 27-4] | 120 nM | 110 nM
CC(C)(O)c1cc(COc2ccc(-c3ccn[nH]3)nc2)ccc1F [Example 27-5] | 900 nM | 79 nM
O=C(O)[C@H]1C[C@](O)(c2cccc(COc3ccc(-c4ccn[nH]4)nc3)c2)C1 [Example 28-1, 3-Hydroxy-3-[3-[[6-(1-H-pyrazol-5-yl)-3-pyridinyl]oxymethyl]phenyl]-1-cyclobutanecarboxylic Acid] | 470 nM | 61 nM
O=C(O)[C@H]1C[C@](O)(c2cc(COc3ccc(-c4ccn[nH]4)nc3)ccc2F)C1 [Example 28-2] | 1000 nM | 100 nM
O=C(O)c1cccc(CCCOc2ccc(-c3ccn[nH]3)nc2)n1 [Example 29-1, 6-[3-[[6-(1H-Pyrazol-5-yl)-3-pyridinyl]oxy]propyl]-2-pyridinecarboxylic Acid] | 4000 nM | 650 nM
O=C(O)c1ccnc(CCCOc2ccc(-c3ccn[nH]3)nc2)c1 [Example 29-2, 2-[3-[[6-(1H-Pyrazol-5-yl)-3-pyridinyl]oxy]propyl]-4-pyridinecarboxylic Acid] | 2700 nM | 1300 nM
O=C(O)c1ncc(CCCCOc2ccc(-c3ccn[nH]3)nc2)cn1 [Example 29-3] | 84 nM | 380 nM
O=C(O)c1ccc(CCCCOc2ccc(-c3ccn[nH]3)nc2)cn1 [Example 29-4] | 240 nM | 42 nM
O=C(O)c1cccc(CCCCOc2ccc(-c3ccn[nH]3)nc2)n1 [Example 29-5] | 690 nM | 29 nM
O=C(O)CCCc1cccc(COc2ccc(-c3ccn[nH]3)nc2)c1 [Example 30-1, 4-[3-[[6-(1H-Pyrazol-5-yl)-3-pyridinyl]oxymethyl]phenyl]butanoic Acid] | 1400 nM | 17 nM
O=C(O)CCCc1ccc(COc2ccc(-c3ccn[nH]3)nc2)cc1 [Example 30-2] | 190 nM | 160 nM
O=C(O)CCc1cccc(CCCOc2ccc(-c3ccn[nH]3)nc2)c1 [Example 30-3, 3-[3-[3-[[6-(1H-Pyrazol-5-yl)-3-pyridinyl]oxy]propyl]phenyl]propanoic Acid] | 370 nM | 150 nM
O=C(O)CCCc1cccc(CCCOc2ccc(-c3ccn[nH]3)nc2)c1 [Example 30-4] | 350 nM | 140 nM
O=C(O)CCCc1ccc(CCCOc2ccc(-c3ccn[nH]3)nc2)cc1 [Example 30-5] | 74 nM | 420 nM
O=C(O)c1cccc(-c2cccc(COc3ccc(-c4ccn[nH]4)nc3)c2)c1 [Example 31-1, 3-[3-[[6-(1H-Pyrazol-5-yl)-3-pyridinyl]oxymethyl]phenyl]benzoic Acid] | 110 nM | 9.3 nM
